Data as given in patent publication US11286268B1, “EIF4E-inhibiting compounds and methods” (EFFECTOR THERAPEUTICS, INC., priority 2019, dated 2022).
Like-named read-outs stand apart in the source and are kept apart here.

Molecular target: recombinant eIF4E (Homo sapiens (Human), UniProt P06730)
Test: Fluorescence polarization competition assay for eIF4E binding potency
In short: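 FP readout; IC50 fit from 8-point, 3-fold series. 75 nM eIF4E + 20 nM ATTO-550-labelled m7GDP probe, Tris pH 7.5/NaCl/DTT/Tween buffer, 1% DMSO final. 30 min RT equilibration, light-protected.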

[1] = fluorescence polarization competition, 75 nM recombinant eIF4E, 20 nM EDA-m7GDP-ATTO-550, IC50 class, read-out: elF4E FP
[2] = inhibition of eIF4E/EDA-m7GDP-ATTO-550 binding by 50%, Table 4B calculated values, read-out: IC50

recombinant eIF4E, sequence (P06730 whole entry): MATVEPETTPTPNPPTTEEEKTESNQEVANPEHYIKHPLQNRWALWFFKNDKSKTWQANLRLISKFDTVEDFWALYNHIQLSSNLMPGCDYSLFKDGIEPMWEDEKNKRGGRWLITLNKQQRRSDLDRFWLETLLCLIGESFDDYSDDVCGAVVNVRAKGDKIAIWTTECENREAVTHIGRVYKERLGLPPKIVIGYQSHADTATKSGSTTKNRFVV

Row | SMILES | IC50 [1] | IC50 [2]
1 | Cc1cc(-c2c(CF)cc3nc(C)n(CCOc4ccc(Cl)cc4-c4cc(C)nc5c(C(=O)O)csc45)c(=O)c3c2C#N)cc(C)n1 [compound 933] | 50 to 1000 nM | 122 nM
2 | Cc1cc(-c2cc(Cl)ccc2OCCn2c(C)nc3cc(C(F)(F)F)c(-c4scnc4C)nc3c2=O)c2scc(C(=O)O)c2n1 [compound 939] | < 50 nM | 12.1 nM
3 | Cc1nc2cnc(C3CC3)c(C#N)c2c(=O)n1CCOc1ccc(Cl)cc1Sc1cccc(C(=O)O)n1 [compound 940] | 50 to 1000 nM | 470 nM
4 | Cc1cc(-c2cc(Cl)ccc2OCCn2c(C)nc3cc(Cl)c(NC4CC4)c(C#N)c3c2=O)c2scc(C(=O)O)c2n1 [compound 958] | < 50 nM | 13.5 nM
5 | Cc1ccc(N(C)c2c(Cl)cc3nc(C)n(CCOc4ccc(Cl)cc4-c4cc(C)nc5c(C(=O)O)csc45)c(=O)c3c2C#N)cn1 [compound 959] | < 50 nM | 14.8 nM
6 | Cc1ccc(Nc2c(Cl)cc3nc(C)n(CCOc4ccc(Cl)cc4-c4cc(C)nc5c(C(=O)O)csc45)c(=O)c3c2C#N)cn1 [compound 960] | < 50 nM | 39.6 nM
7 | Cc1cc(-c2cc(Cl)ccc2OCCn2c(C)nc3cc(Cl)c(N(C)c4cncc(F)c4)c(C#N)c3c2=O)c2scc(C(=O)O)c2n1 [compound 961] | < 50 nM | 21.1 nM
8 | Cc1cc(-c2cc(Cl)ccc2OCCn2c(C)nc3cc(Cl)c(Nc4cncc(F)c4)c(C#N)c3c2=O)c2scc(C(=O)O)c2n1 [compound 962] | < 50 nM | 3.15 nM
9 | Cc1cc(-c2c(C(F)(F)F)cc3nc(C)n(CCOc4ccc(Cl)cc4-c4cc(C)nc5c(C(=O)O)csc45)c(=O)c3c2C#N)nc(C)n1 [compound 963] | < 50 nM | 7.84 nM
10 | Cc1cc(-c2cc(Cl)ccc2OCCn2c(C)nc3cc(C(F)(F)F)c(-c4nc(C)ncc4F)c(C#N)c3c2=O)c2scc(C(=O)O)c2n1 [compound 964] | < 50 nM | 3.32 nM
11 | Cc1cc(C)nc(-c2c(C(F)(F)F)cc3nc(C)n(CCOc4ccc(Cl)cc4-c4cc(C)nc5c(C(=O)O)csc45)c(=O)c3c2C#N)n1 [compound 965] | 50 to 1000 nM | 118 nM
12 | Cc1cc(-c2cc(Cl)ccc2OCCn2c(C)nc3cc(C(F)(F)F)c(-c4ncc(F)cn4)c(C#N)c3c2=O)c2scc(C(=O)O)c2n1 [compound 966] | < 50 nM | 3.58 nM
13 | Cc1ccc(-c2c(C(F)(F)F)cc3nc(C)n(CCOc4ccc(Cl)cc4-c4cc(C)nc5c(C(=O)O)csc45)c(=O)c3c2C#N)nn1 [compound 967] | < 50 nM | 12.2 nM
14 | Cc1cnc(C)c(-c2c(C(F)(F)F)cc3nc(C)n(CCOc4ccc(Cl)cc4-c4cc(C)nc5c(C(=O)O)csc45)c(=O)c3c2C#N)n1 [compound 968] | < 50 nM | 8.95 nM
15 | Cc1cc(-c2cc(Cl)ccc2OCCn2c(C)nc3cc(C(F)(F)F)c(-c4cnc(C)c(C)n4)c(C#N)c3c2=O)c2scc(C(=O)O)c2n1 [compound 969] | < 50 nM | 5.56 nM
16 | Cc1nc2cnc(C3CC3)c(C#N)c2c(=O)n1CCOc1ccc(Cl)cc1Cc1cc(C(=O)O)cs1 [compound 970] | 50 to 1000 nM | 166 nM

Second part, the molecule after the results:

Row | IC50 [1] | IC50 [2] | SMILES
17 | < 50 nM | 13.7 nM | Cc1cc(-c2cc(Cl)ccc2OCCn2c(C)nc3cnc(C4CCCC(F)(F)C4)c(C#N)c3c2=O)c2scc(C(=O)O)c2n1 (stereo not shown) [compound 931]
18 | < 50 nM | 17.8 nM | Cc1cc(-c2c(F)cc3nc(C)n(CCOc4ccc(Cl)cc4-c4cc(C)nc5c(C(=O)O)csc45)c(=O)c3c2C#N)cc(C)n1 [compound 932]
19 | < 50 nM | 13.6 nM | Cc1cc(-c2c(C(F)(F)F)cc3nc(C)n(CCOc4ccc(Cl)cc4-c4cc(C)nc5c(C(=O)O)csc45)c(=O)c3c2C#N)cc(CF)n1 [compound 934]
20 | < 50 nM | 19.6 nM | Cc1cc(-c2cc(Cl)ccc2OCCn2c(C)nc3cc(F)c(-c4ccccc4)c(C#N)c3c2=O)c2scc(C(=O)O)c2n1 [compound 935]
21 | < 50 nM | 2.44 nM | Cc1cc(-c2cc(Cl)ccc2OCCn2c(C)nc3cc(C(F)(F)F)c(C(C)(C)O)nc3c2=O)c2scc(C(=O)O)c2n1 [compound 938]
22 | < 50 nM | 20 nM | Cc1cc(-c2cc(Cl)ccc2OCCn2c(C)nc3cnc(-c4ccccc4F)c(C#N)c3c2=O)c2scc(C(=O)O)c2n1 [compound 941]
23 | < 50 nM | 6.93 nM | Cc1cc(-c2cc(Cl)ccc2OCCn2c(C)nc3cnc(-c4cccc(F)c4)c(C#N)c3c2=O)c2scc(C(=O)O)c2n1 [compound 942]
24 | < 50 nM | 14.7 nM | Cc1cc(-c2cc(Cl)ccc2OCCn2c(C)nc3cnc(-c4ccc(F)cc4)c(C#N)c3c2=O)c2scc(C(=O)O)c2n1 [compound 943]
25 | < 50 nM | 46.2 nM | Cc1cc(-c2cc(Cl)ccc2OCCn2c(C)nc3cnc(-c4ccccc4C)c(C#N)c3c2=O)c2scc(C(=O)O)c2n1 [compound 944]
26 | < 50 nM | 38.9 nM | Cc1cccc(-c2ncc3nc(C)n(CCOc4ccc(Cl)cc4-c4cc(C)nc5c(C(=O)O)csc45)c(=O)c3c2C#N)c1 [compound 945]
27 | < 50 nM | 27.7 nM | Cc1ccc(-c2ncc3nc(C)n(CCOc4ccc(Cl)cc4-c4cc(C)nc5c(C(=O)O)csc45)c(=O)c3c2C#N)cc1 [compound 946]
28 | < 50 nM | 23.7 nM | Cc1cc(-c2cc(Cl)ccc2OCCn2c(C)nc3cnc(-c4ccccc4Cl)c(C#N)c3c2=O)c2scc(C(=O)O)c2n1 [compound 947]
29 | < 50 nM | 18.3 nM | Cc1cc(-c2cc(Cl)ccc2OCCn2c(C)nc3cnc(-c4cccc(Cl)c4)c(C#N)c3c2=O)c2scc(C(=O)O)c2n1 [compound 948]
30 | < 50 nM | 37.3 nM | Cc1cc(-c2cc(Cl)ccc2OCCn2c(C)nc3cnc(-c4ccc(Cl)cc4)c(C#N)c3c2=O)c2scc(C(=O)O)c2n1 [compound 949]
31 | < 50 nM | 17.2 nM | Cc1cc(-c2cc(Cl)ccc2OCCn2c(C)nc3cnc(-c4ccccc4C(F)(F)F)c(C#N)c3c2=O)c2scc(C(=O)O)c2n1 [compound 950]
32 | < 50 nM | 43.6 nM | Cc1cc(-c2cc(Cl)ccc2OCCn2c(C)nc3cnc(-c4cccc(C(F)(F)F)c4)c(C#N)c3c2=O)c2scc(C(=O)O)c2n1 [compound 951]
33 | < 50 nM | 45 nM | Cc1cc(-c2cc(Cl)ccc2OCCn2c(C)nc3cnc(-c4ccc(C(F)(F)F)cc4)c(C#N)c3c2=O)c2scc(C(=O)O)c2n1 [compound 952]
34 | < 50 nM | 13.4 nM | Cc1cc(-c2cc(Cl)ccc2OCCn2c(C)nc3cnc(-c4cc(Cl)ccc4C)c(C#N)c3c2=O)c2scc(C(=O)O)c2n1 [compound 953]
35 | < 50 nM | 8.29 nM | Cc1cc(-c2cc(Cl)ccc2OCCn2c(C)nc3cnc(-c4cc(Cl)ccc4Cl)c(C#N)c3c2=O)c2scc(C(=O)O)c2n1 [compound 954]
36 | < 50 nM | 10.2 nM | Cc1cc(-c2cc(Cl)ccc2OCCn2c(C)nc3cc(Cl)c(N(C)C(C)(C)C)c(C#N)c3c2=O)c2scc(C(=O)O)c2n1 [compound 955]
37 | < 50 nM | 16.5 nM | Cc1cc(-c2cc(Cl)ccc2OCCn2c(C)nc3cc(Cl)c(NC(C)(C)C)c(C#N)c3c2=O)c2scc(C(=O)O)c2n1 [compound 956]
38 | < 50 nM | 5.81 nM | Cc1cc(-c2cc(Cl)ccc2OCCn2c(C)nc3cc(Cl)c(N(C)C4CC4)c(C#N)c3c2=O)c2scc(C(=O)O)c2n1 [compound 957]
